Test results published in ChEMBL document CHEMBL5500373, “Lead optimization based design, synthesis, and pharmacological evaluation of quinazoline derivatives as multi-targeting agents for Alzheimer's disease treatment” (Eur J Med Chem, 2024).
Active and inactive are the calls of the source. The rule behind the calls is not given here.

Assays:
[1] = biological target: Cholinesterase (Equus caballus) (UniProt P81908); test: Inhibition of horse serum BChE at 100 uM preincubated for 10 mins followed by substrate addition and measured after 15 mins by Ellman's method relative to control; conditions: time 25.0 min
Cholinesterase (Equus caballus), sequence (P81908 whole entry, the tested form may be a part): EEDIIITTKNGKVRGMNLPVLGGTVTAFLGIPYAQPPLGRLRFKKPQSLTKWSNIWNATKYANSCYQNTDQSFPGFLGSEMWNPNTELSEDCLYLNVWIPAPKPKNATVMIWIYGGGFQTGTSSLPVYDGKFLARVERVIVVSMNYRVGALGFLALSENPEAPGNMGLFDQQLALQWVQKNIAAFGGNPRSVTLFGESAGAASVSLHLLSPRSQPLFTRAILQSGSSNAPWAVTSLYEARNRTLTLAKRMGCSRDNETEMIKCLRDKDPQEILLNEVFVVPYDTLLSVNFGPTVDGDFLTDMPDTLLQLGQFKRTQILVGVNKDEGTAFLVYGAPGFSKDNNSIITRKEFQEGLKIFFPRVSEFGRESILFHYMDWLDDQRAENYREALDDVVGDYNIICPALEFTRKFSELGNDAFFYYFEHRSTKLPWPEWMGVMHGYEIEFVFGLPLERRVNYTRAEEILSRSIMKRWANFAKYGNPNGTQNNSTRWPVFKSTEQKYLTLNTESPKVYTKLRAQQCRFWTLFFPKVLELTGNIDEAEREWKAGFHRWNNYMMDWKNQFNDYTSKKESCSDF

[2] = biological target: Amyloid-beta precursor protein (Homo sapiens) (UniProt P05067); test: Inhibition of amyloid beta (1 to 42 residues) (unknown origin) aggregation assessed as reduction in fibrils measured after 3 days by AFM analysis; conditions: time 3.0 day
Amyloid-beta precursor protein (Homo sapiens), sequence (P05067 whole entry, the tested form may be a part): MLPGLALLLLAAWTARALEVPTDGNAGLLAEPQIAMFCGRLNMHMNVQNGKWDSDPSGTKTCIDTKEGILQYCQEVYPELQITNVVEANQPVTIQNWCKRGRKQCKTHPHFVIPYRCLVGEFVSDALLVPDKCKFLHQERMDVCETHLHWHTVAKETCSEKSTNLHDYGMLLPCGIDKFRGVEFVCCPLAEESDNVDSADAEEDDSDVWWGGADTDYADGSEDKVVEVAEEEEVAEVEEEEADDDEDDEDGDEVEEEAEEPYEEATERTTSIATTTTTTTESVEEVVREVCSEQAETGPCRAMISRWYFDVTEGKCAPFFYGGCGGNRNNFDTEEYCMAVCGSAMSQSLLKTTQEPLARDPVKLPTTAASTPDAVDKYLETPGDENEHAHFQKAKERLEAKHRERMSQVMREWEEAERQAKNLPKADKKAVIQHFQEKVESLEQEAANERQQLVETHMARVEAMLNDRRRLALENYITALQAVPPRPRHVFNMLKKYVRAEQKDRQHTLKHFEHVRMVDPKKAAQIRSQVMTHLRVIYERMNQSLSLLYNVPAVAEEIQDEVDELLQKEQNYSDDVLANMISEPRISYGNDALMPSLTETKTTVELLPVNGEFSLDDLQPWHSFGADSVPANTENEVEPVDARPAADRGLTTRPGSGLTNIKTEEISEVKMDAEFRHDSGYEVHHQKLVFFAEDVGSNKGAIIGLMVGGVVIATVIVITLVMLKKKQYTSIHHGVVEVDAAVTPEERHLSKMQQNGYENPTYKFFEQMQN

[3] = biological target: Amyloid-beta precursor protein (Homo sapiens) (UniProt P05067); test: Inhibition of amyloid beta (1 to 42 residues) (unknown origin) aggregation assessed as reduction in massive oligomers measured after 3 days by AFM analysis; conditions: time 3.0 day
Beta-secretase 1 [4] = biological target: T1, Beta-secretase 1 (Homo sapiens, UniProt P56817); test: Inhibition of human BACE-1 measured after 2 hrs by FRET assay
T1 sequence (P56817 whole entry): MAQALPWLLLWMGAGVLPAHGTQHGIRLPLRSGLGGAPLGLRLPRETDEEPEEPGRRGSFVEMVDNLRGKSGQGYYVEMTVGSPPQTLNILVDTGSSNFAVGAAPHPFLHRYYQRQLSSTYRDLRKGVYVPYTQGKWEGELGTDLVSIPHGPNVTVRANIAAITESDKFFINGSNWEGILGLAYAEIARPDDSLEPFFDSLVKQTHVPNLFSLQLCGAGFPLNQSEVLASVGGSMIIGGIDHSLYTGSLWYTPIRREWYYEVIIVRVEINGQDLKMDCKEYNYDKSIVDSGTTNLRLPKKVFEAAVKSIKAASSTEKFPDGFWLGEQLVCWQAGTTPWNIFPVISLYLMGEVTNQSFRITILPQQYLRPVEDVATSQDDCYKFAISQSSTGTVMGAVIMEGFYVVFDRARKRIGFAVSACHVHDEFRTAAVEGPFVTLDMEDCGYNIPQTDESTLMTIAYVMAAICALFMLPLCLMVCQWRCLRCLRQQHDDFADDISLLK

Cholinesterase [5] = biological target: T2, Cholinesterase (Homo sapiens, UniProt P06276); test: Inhibition of human serum BChE using butyrylthiocholine iodide as substrate preincubated for 30 mins followed by substrate addition and measured after 30 mins by DTNB based Ellman's method
T2 sequence (P06276 whole entry): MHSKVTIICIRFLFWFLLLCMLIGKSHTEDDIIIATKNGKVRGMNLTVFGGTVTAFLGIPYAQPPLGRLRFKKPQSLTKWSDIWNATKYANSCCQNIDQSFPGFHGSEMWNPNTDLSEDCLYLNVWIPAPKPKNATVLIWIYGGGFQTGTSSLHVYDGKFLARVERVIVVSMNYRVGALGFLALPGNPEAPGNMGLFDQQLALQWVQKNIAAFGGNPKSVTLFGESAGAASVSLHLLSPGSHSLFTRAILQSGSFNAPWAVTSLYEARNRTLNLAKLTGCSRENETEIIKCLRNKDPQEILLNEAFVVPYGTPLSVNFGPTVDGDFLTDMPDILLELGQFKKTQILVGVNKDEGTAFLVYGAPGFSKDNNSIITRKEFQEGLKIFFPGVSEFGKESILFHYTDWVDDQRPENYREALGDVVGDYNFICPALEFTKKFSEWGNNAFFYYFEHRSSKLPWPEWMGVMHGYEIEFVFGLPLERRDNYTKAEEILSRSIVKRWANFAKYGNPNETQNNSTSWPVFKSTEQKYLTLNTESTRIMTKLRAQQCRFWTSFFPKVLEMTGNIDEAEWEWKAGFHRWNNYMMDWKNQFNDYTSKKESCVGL

Acetylcholinesterase [6] = biological target: T3, Acetylcholinesterase (Homo sapiens, UniProt P22303); test: Inhibition of human erythrocyte AChE using acetylthiocholine iodide as substrate preincubated for 30 mins followed by substrate addition and measured after 30 mins by DTNB based Ellman's method
T3 sequence (P22303 whole entry, the tested form may be a part): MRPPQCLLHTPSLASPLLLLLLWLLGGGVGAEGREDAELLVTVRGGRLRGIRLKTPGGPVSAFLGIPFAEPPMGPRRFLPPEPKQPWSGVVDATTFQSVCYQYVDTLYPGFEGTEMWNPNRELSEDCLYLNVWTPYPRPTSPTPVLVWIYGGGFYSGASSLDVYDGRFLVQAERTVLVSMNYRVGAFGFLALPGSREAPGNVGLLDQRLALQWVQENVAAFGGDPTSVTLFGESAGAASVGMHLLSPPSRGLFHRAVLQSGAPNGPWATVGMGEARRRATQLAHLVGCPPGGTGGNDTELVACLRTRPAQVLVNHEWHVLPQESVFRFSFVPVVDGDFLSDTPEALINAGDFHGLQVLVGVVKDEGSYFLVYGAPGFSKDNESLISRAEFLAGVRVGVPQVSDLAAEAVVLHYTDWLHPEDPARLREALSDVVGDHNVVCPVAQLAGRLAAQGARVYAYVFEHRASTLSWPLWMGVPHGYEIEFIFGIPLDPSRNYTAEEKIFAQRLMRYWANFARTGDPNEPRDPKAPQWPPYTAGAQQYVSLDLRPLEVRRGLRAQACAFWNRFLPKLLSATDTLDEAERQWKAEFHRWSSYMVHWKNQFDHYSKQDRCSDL

[7] = biological target: Amyloid-beta precursor protein (Homo sapiens) (UniProt P05067); test: Inhibition of self induced amyloid beta (1 to 42 residues) (unknown origin) aggregation at 10 uM by thioflavin T based fluorescence analysis relative to control
PC-12 = test: Neuroprotective activity against amyloid beta (1 to 42 residues) induced cell damage in rat PC12 cells at 100 uM by MTT assay relative to control; type: functional
in vitro = conditions: PAMPA
Beta-secretase 1 [8] = biological target: T1, Beta-secretase 1; test: Inhibition of human BACE-1 by FRET assay
Acetylcholinesterase [9] = biological target: T3, Acetylcholinesterase; test: Inhibition of human AChE
[10] = Drug concentration in male Wistar rat brain homogenate at 20 mg/kg, po measured after 4 days; type: ADME, organism-based; conditions: time 4 day, read-out: Ct
[11] = Drug concentration in male Wistar rat brain homogenate at 10 mg/kg, po measured after 4 days; type: ADME, organism-based; conditions: time 4 day, read-out: Ct
Cholinesterase [12] = biological target: T2, Cholinesterase; test: Inhibition of human BChE
Beta-secretase 1 [13] = biological target: T1, Beta-secretase 1; test: Inhibition of human BACE-1
[14] = Antioxidant activity assessed as DPPH radical scavenging activity incubated for 30 mins in dark by UV/visible spectrophotometric analysis; type: functional
Beta-secretase 1 [15] = biological target: T1, Beta-secretase 1; test: Inhibition of C-terminal 10-His tagged recombinant human BACE-1 using Mca-Ser-Glu-Val-Asn-Leu-Asp-Ala-Glu-Phe-Arg-Lys(Dnp)-Arg-Arg-NH2 as substrate pretreated for 10 mins followed by substrate addition and measured every 5 mins for 120 mins
Beta-secretase 1 [16] = biological target: T1, Beta-secretase 1; test: Inhibition of BACE-1 in human SH-SY5Y cells transfected with human APP695 measured after 24 hrs by ELISA; type: cell-based
[17] = Cytotoxicity against human SH-SY5Y cells by MTT assay; type: toxicity, cell-based
Cholinesterase [18] = biological target: T2, Cholinesterase; test: Inhibition of BChE (unknown origin) at 10 uM relative to control
Acetylcholinesterase [19] = biological target: T3, Acetylcholinesterase; test: Inhibition of AChE (unknown origin) at 10 uM relative to control
Acetylcholinesterase [20] = biological target: T3, Acetylcholinesterase; test: Inhibition of AChE (unknown origin)

Structure (SMILES) | IC50 (Beta-secretase 1 [4]) [µM] | IC50 (Cholinesterase [5]) [µM] | IC50 (Acetylcholinesterase [6]) [µM] | further results
Cc1ccccc1-n1c(SCC(=O)N/N=C/c2ccc(Br)cc2)nc2ccccc2c1=O | – | – | – | inhibition [1]: 6.8%
COc1cc(/C=C/C(=O)CC(=O)/C=C/c2ccc(O)c(OC)c2)ccc1O | – | – | – | inhibition [2]: Active; inhibition [3]: Active
COc1cc2ncnc(N3CCN(Cc4ccc(C)cc4)CC3)c2cc1OC | 1.43 | > 10 | 1.02 | –
COc1cc2c(Nc3ccc(C(=O)/C=C/c4nc(C)c(C)nc4C)cc3)ncnc2c(OC)c1OC | – | – | – | inhibition [7]: 26.7%; Activity (PC-12): 77%
COc1cc2ncnc(N3CCN(C)CC3)c2cc1OC | 3.28 | > 10 | 1.27 | –
COc1cc2ncnc(N3CCN(C(c4ccccc4)c4ccccc4)CC3)c2cc1OC | 0.662 | > 10 | 0.436 | Papp at 18 h, 25 ug/ml (in vitro): 6.28 ×10⁻⁶ cm/s
FC(F)(F)c1ccc(-c2nnc(NC3CCN(Cc4ccccc4)CC3)o2)cc1 | – | – | – | IC50 (Beta-secretase 1 [8]): 0.146 µM
COc1cc2ncnc(N3CCN(c4ccc(F)cc4)CC3)c2cc1OC | 1.47 | > 10 | 1.04 | –
COc1cc2ncnc(N3CCN(Cc4ccc(F)cc4)CC3)c2cc1OC | 2.92 | > 10 | 0.932 | –
COc1cc2ncnc(N3CCN(c4ccccc4)CC3)c2cc1OC | 1.31 | > 10 | 1.01 | –
c1ccc(CN2CCN(c3nc(-c4ccccc4)nc4ccccc34)CC2)cc1 | – | – | – | IC50 (Acetylcholinesterase [9]): 0.191 µM; concentration at 96 h [10]: 54 ng/mL; concentration at 96 h [11]: 15 ng/mL; IC50 (Cholinesterase [12]): > 10 µM; IC50 (Beta-secretase 1 [13]): 254 µM
COc1cc2ncnc(N3CCN(C(C)=O)CC3)c2cc1OC | 3.66 | > 10 | 1.19 | –
COc1cc2ncnc(N3CCN(c4ccccn4)CC3)c2cc1OC | 1.56 | > 10 | 1.15 | –
Cn1c(N/N=C/c2cccc(Cl)c2Cl)nc2ccccc2c1=O | – | – | – | IC50 [14]: > 100 µM
CC1c2cc(Oc3ccccc3)ccc2N=C(N)N1CCCC(=O)N(Cc1ccnn1C)C1CCCCC1 (centres undefined) | – | – | – | IC50 (Beta-secretase 1 [15]): 0.38 µM; IC50 (Beta-secretase 1 [16]): 0.14 µM; IC50 [17]: 11.8 µM
COc1cc2ncnc(N3CCN(c4ccccc4[N+](=O)[O-])CC3)c2cc1OC | 1.82 | > 10 | 0.914 | –
COc1cc2ncnc(N3CCN(c4ccc(C)cc4)CC3)c2cc1OC | 1.88 | > 10 | 1.17 | –
C#CCN(C)c1nc(NC2CCCCC2)c2ccc(Cl)cc2n1 | – | – | – | inhibition (Cholinesterase [18]): 3%; inhibition (Acetylcholinesterase [19]): 3%
COc1cc2ncnc(N3CCN(c4ccc(Br)cc4)CC3)c2cc1OC | 1.71 | > 10 | 0.973 | –
COc1cc2ncnc(N3CCN(Cc4ccc(Cl)cc4)CC3)c2cc1OC | 1.65 | > 10 | 0.921 | –
COc1cc2ncnc(N3CCN(c4ccc([N+](=O)[O-])cc4)CC3)c2cc1OC | 0.729 | > 10 | 0.481 | Papp at 18 h, 25 ug/ml (in vitro): 4.81 ×10⁻⁶ cm/s
O=C(CCN1CCCCC1)Nc1ccc2nc(-c3cc4ccccc4[nH]3)[nH]c(=O)c2c1 | – | – | – | IC50 (Acetylcholinesterase [20]): 0.021 µM
